“And” between values parts separate entries of the source, which are not always exact repeats. Identical values can stand only once. Counter-ions that a name gives are not always drawn.
Experiments:
[1] = Antiischemic effect on bilateral (carotid) artery ligation model, mortality; format: in vivo, mice; conditions: for mortality at 2 mg/kg / ED50: Mus musculus, ip; for mortality at 2 mg/kg: 24 h, 30 minutes before 5-minute bilateral carotid ligation, control mortality 70%; for mortality at 2 mg/kg / antiischemic activity, in words: 2 mg/kg i.p.; for ED50: dose diminishing the mortality by 50% in comparison to the untreated control group; for antiischemic activity, in words: bilateral artery ligation, mice
Protocol: 1. Antiischemic Effect (On Bilateral Artery Ligation Model)
N. Himori et al.: Cerebral ischemia model with conscious mice involvement of NMDA receptor activation and derangement of learning and memory ability [J. Pharmacol. Meth. 23, 311-327 (1990)].
Carotid arteries of mice (weighing 30 to 32 g each) were exposed bilaterally under anaesthesia by 450 mg/kg of intraperitoneal (i.p.) chloral hydrate. The sympathetic and vagal nerves were separated and a loose ligation was bilaterally placed below the carotid arteries. Both ends of the ligation were led out on the back, behind the ears. Next day, in conscious state both ends of the ligation were pulled resulting in the stopping of blood supply through the carotid arteries. This was maintained for 5 minutes, then released to provide the reperfusion. The number of animals died during the 5-minute period and the following 24 hours were registered. The calculation of significance was performed by the chi^2 test. The pre-treatment with the compound was carried out intraperitoneally (i.p.) 30 minutes before the ligation.
The transient dramatic decrease in the cerebral blood supply, then the starting of reperfusion after stopping the ligation leads to the formation of extremely toxic oxygen free radicals (superoxide radical, hydrogen peroxide). […] [ED50 is the dose (as mg/kg) diminishing the mortality by 50% in comparison to the untreated is control group].

[2] = test system: NADPH-Induced Lipid Peroxidation in Brain Microsomes; experiment: NADPH-induced (enzymatic) lipid peroxidation in brain microsomes (AEI); format: biochemical, rat (male Hannover-Wistar); conditions: for IC50: NADPH-induced lipid peroxidation, rat brain microsomes, 37° C., 20 minutes, pH 6.8; for inhibition of NADPH-induced lipid peroxidation relative to silymarin (times as strongly): compared with silymarin; for antioxidant effect in NADPH-induced lipid peroxidation, in words: comparison with reference compounds
Protocol: Effect on the NADPH-Induced Lipid Peroxidation in Brain Microsomes
Male Hannover-Wistar rats with a body weight of 150-250 g were used for the preparation of microsomes. After decapitation, the whole brain was removed and homogenized in a 10-fold volume of ice-cold 0.25 M saccharose solution. The homogenate was centrifuged in a Hitachi CR 26H equipment at 15000 g at 4° C. for 10 minutes, then the supernatant was collected and centrifuged in a Hitachi SCP 85H apparatus at 78000 g at 4° C. for 60 minutes. After suspending the precipitate in 0.15 M KCl solution, the protein content of the obtained solution was determined and then adjusted to 10 mg/ml concentration. The microsome thus obtained was frozen in a dry ice-acetone mixture and stored at -70° C. until use. The components of the incubation mixture were: 50 mM TRIS-HCl (pH 6.8), 0.2 mM FeCl3, 1 mM KH2 PO4, 0.5 mM ADP, 0.2 mg of microsomes as well as the compound to be tested. The incubation was carried out with a final volume of 1 ml and with an incubation time of 20 minutes at a temperature of 37° C. The lipid peroxidation was induced by adding 0.4 mM NADPH.
The formation of malondialdehyde was determined by using thiobarbituric acid. After stopping the reaction, 1 ml of 1% thiobarbituric acid solution each was weighed to the samples, which were then placed in a water bath of about 100° C. for 10 minutes. Subsequently, the samples were centrifuged at 2000 g in a Janetzki K70 apparatus at 4° C. for 10 minutes. The absorbance values of the colored supernatant were measured at 535 nm in a Hitachi 150-20 spectrophotometer. Malondialdehyde bis(diethylacetal) was used as reference compound.

[3] = test system: Fe^2+ -Induced Lipid Peroxidation in Brain Homogenate; experiment: Fe^2+-induced (non-enzymatic) lipid peroxidation in brain homogenate (ANI); format: biochemical, rat (Hannover-Wistar); conditions: for IC50: Fe^2+-induced lipid peroxidation, rat brain homogenate, 37° C., 20 minutes, pH 7.4; for antioxidant activity in Fe^2+-induced lipid peroxidation, in words: comparison with idebenone, DL-α-tocopherol or silymarin
Protocol: Effect on the Fe^2+ -Induced Lipid Peroxidation in Brain Homogenate
After decapitating Hannover-Wistar rats weighing 150-220 g each, the whole brain was homogenized in 9 volumes of ice-cold Krebs-Ringer's buffer containing 15 mM HEPES, (4-(2-hydroxyethyl)-1-piperazinylethanesulfonic acid) (pH 7.4), 140 mM NaCl7 3.6 mM KCl, 1.5 mM CaCl2, 0.7 mM MgCl2, 1.4 mM KH2 PO4 and 10 glucose. Then the protein content of the solution was determined and adjusted to 10 mg/ml concentration.
After adding the inhibitory agent to be tested in a volume of 5 μl to 200 μl of the homogenate, the incubation mixture was incubated at 37° C. for 20 minutes. The Fe^2+ -induced lipid peroxidation was accomplished by adding 5 μl of 8 mM Fe2 (NH4)2 (SO4)2 solution. After passing of the incubation time, the reaction was stopped by adding 1 ml of a stopping solution containing 0.8 M HCl and 12.5% trichloroacetic acid, then the samples were centrifuged at 2000 g in a Janetzki K70 apparatus at 4° C. for 10 minutes.
To a 0.5 ml portion of the supernatant, 1 ml of 1% thiobarbituric acid solution was added, then the samples were placed in a water bath of 100° C. for 20 minutes. The color intensity developed was determined at 535 nm with a Hitachi 150-20 spectrophotometer by using malondialdehyde bis(diethylacetal) as reference compound.
ANI: non-enzymatically (Fe^2+) induced lipid peroxidation test

[4] = Diazepam-induced anterograde amnesia (passive avoidance); format: in vivo, NMRI mice; conditions: for Inhibition of the diazepam-induced amnesia %: 1 hour before learning, diazepam 3 mg/kg i.p.; for antiamnesic activity, in words: diazepam-induced anterograde amnesia, 0.1 and 10 mg/kg p.o.
Description: 2. Diazepam-Induced Anterograde Amnesia C. L. Broekkamp et al.: The comparative effects of benzodiazepines, progabide and PK 9084 on acquisition of passive avoidance in mice [Psychopharmacology (Berlin) 83, 122-125 (1984)]. The memory test was accomplished on NMRI mice weighing 25 to 28 g each by using the passive avoidance, a method based on the genetically determined nyctophilic behavior of rodents. During the learning period, the pre-selected animals (mice entering the dark space from the illuminated space within 30 seconds) were placed in an illuminated space. After entering the dark space, the animal received an electric shock (1 mA for […]) onto its planta within 30 seconds, then the time until entry to the dark space (latency period) was registered. After 24 hours, the animals were placed again in the illuminated space and the time until crossing over to the dark space (retention time=T with a time limit of 300 seconds) was measured. For inducing an anterograde amnesia, the animals were treated intraperitoneally with 3 mg/kg of diazepam 30 minutes before learning. The compounds were administered orally in 0.1 or 10 mg/kg doses, respectively 1 hour before learning. [formula]

With `CCC(=O)OCCOC(=O)C1=C[C@@]2(CC)CCCN3CCc4c(n1c1ccccc41)[C@@H]32` [Compound 1011038, (+)-trans apovincaminic acid 2-(propionyloxy)ethyl ester(3α,16β)hydrochloride] the mortality at 2 mg/kg [1] was 60%, the IC50 [2] was 8.4 µM and < 10 µM and the “inhibition of NADPH-induced lipid peroxidation relative to silymarin (times as strongly)” value [2] was “about 20 times”. For the same compound, the IC50 [3] was 8.7 µM and < 10 µM, the “antioxidant activity in Fe^2+-induced lipid peroxidation, in words” value (shortened to “antioxidant activity”) [3] was “about twice as active as idebenone or DL-α-tocopherol” and the “Inhibition of the diazepam-induced amnesia %” value ([4]; 0.1 mg/kg p.o.) was 64%. The “Inhibition of the diazepam-induced amnesia %” value ([4]; 10.0 mg/kg p.o.) was 24% and the “antiamnesic activity, in words” value [4] was “particularly effective”.
For `CC[C@]12C=C(C(=O)OCCOC(=O)c3ccccc3)n3c4c(c5ccccc53)CCN(CCC1)[C@H]42` [Compound 1011036, (-)-trans apovincaminic acid 2-(benzoyloxy)ethyl ester(3α,16β)hydrochloride], the mortality at 2 mg/kg [1] was 50%, the IC50 [2] was 7.7 µM and < 10 µM and the “inhibition of NADPH-induced lipid peroxidation relative to silymarin (times as strongly)” value [2] was “about 20 times”. The IC50 [3] was 9.3 µM and < 10 µM, the “antioxidant activity” value [3] was “about twice as active as idebenone or DL-α-tocopherol” and the “Inhibition of the diazepam-induced amnesia %” value ([4]; 0.1 mg/kg p.o.) was 23%. For the same compound, the “Inhibition of the diazepam-induced amnesia %” value ([4]; 10.0 mg/kg p.o.) was 16%.
With `CC[C@@]12C=C(C(=O)OCCOC(=O)c3cccs3)n3c4c(c5ccccc53)CCN(CCC1)[C@@H]42` [Compound 2705283, (-)-trans apovincaminic acid 2-(2-thiophenoyloxi)ethyl ester(3β,16α)monohydrochloride] the IC50 [2] was 11.2 µM, the “inhibition of NADPH-induced lipid peroxidation relative to silymarin (times as strongly)” value [2] was “about 20 times” and the IC50 [3] was 6.8 µM. The “antioxidant activity” value [3] was “about twice as active as idebenone or DL-α-tocopherol”.
In the case of `CC[C@@]12C=C(C(=O)OCCOC(=O)c3ccc([N+](=O)[O-])cc3)n3c4c(c5ccccc53)CCN(CCC1)[C@@H]42` [Compound 2705284, (-)-trans apovincaminic acid 2-(4-nitrobenzoyloxy)ethyl ester(3β,16α)], the IC50 [2] is reported as 20.4 µM, the IC50 [3] is reported as 6.8 µM and the “antioxidant activity” value [3] is reported as “about twice as active as idebenone or DL-α-tocopherol”.
For `CCC(=O)OCCOC(=O)C1=C[C@]2(CC)CCCN3CCc4c(n1c1ccccc41)[C@H]32` [Compound 1010962, (-)-trans apovincaminic acid 2-(propionyloxyethyl)ester(3β,16α)hydrochloride], the mortality at 2 mg/kg [1] was 40%, the IC50 [2] was 7.5 µM and < 10 µM and the “inhibition of NADPH-induced lipid peroxidation relative to silymarin (times as strongly)” value [2] was “about 20 times”. For the same compound, the IC50 [3] was 5.7 µM and < 10 µM, the “antioxidant activity” value [3] was “about twice as active as idebenone or DL-α-tocopherol” and the “Inhibition of the diazepam-induced amnesia %” value ([4]; 0.1 mg/kg p.o.) was 16%. The “Inhibition of the diazepam-induced amnesia %” value ([4]; 10.0 mg/kg p.o.) was 4%.
With `CC[C@]12C=C(C(=O)OCCO)n3c4c(c5ccccc53)CCN(CCC1)[C@H]42` [Compound 1010887, (+)-trans apovincaminic acid 2-hydroxyethyl ester(3α,16β)] the IC50 [2] was 12.6 µM, the “inhibition of NADPH-induced lipid peroxidation relative to silymarin (times as strongly)” value [2] was “about 20 times” and the IC50 [3] was 7.2 µM. The “antioxidant activity” value [3] was “about twice as active as idebenone or DL-α-tocopherol”, the “Inhibition of the diazepam-induced amnesia %” value ([4]; 0.1 mg/kg p.o.) was 50% and the “Inhibition of the diazepam-induced amnesia %” value ([4]; 10.0 mg/kg p.o.) was 56%. The “antiamnesic activity, in words” value [4] was “particularly effective”.
In the case of `CC[C@]12C=C(C(=O)OCCOC(=O)c3cc(OC)c(OC)c(OC)c3)n3c4c(c5ccccc53)CCN(CCC1)[C@H]42` [Compound 1011047, (+)-trans apovincaminic acid 2-(3,4,5-trimethoxybenzoyloxy)ethyl ester(3α,16β)], the mortality at 2 mg/kg [1] is reported as 50%, the IC50 [2] is reported as 5.9 µM and the “antioxidant effect in NADPH-induced lipid peroxidation, in words” value (from here on “antioxidant effect”) [2] is reported as “comparable to that of idebenone”. The IC50 [3] was 16.1 µM and the “antioxidant activity” value [3] was “more strongly than idebenone”.
For `CC[C@@]12C=C(C(=O)OCCOC(=O)c3cc(OC)c(OC)c(OC)c3)n3c4c(c5ccccc53)CCN(CCC1)[C@@H]42` [Compound 1011005, (-)-trans apovincaminic acid 2-(3,4,5-trimethoxybenzoyloxy)-ethyl ester(3β,16α)hydrochloride], the mortality at 2 mg/kg [1] was 70%, the IC50 [2] was 10.3 µM and the “inhibition of NADPH-induced lipid peroxidation relative to silymarin (times as strongly)” value [2] was “about 20 times”. For the same compound, the IC50 [3] was 11.9 µM.
In the case of `Cc1c(C)c2c(c(C)c1O)CCC(C)(CCCC(C)CCCC(C)CCCC(C)C)O2` (racemic) [Vitamin E, 2,5,7,8-tetramethyl-2-(4',8',12'-trimethyltridecyl)-6-chromanol, reference compound], the mortality at 2 mg/kg [1] is reported as 70%, the ED50 [1] is reported as 17.8 mg/kg and the “antiischemic activity, in words” value [1] is reported as “less active in the same dose”. For the same compound, the IC50 [2] was 406 µM and the IC50 [3] was 12.1 µM.
For `COC1=C(OC)C(=O)C(CCCCCCCCCCO)=C(C)C1=O` [Idebenone, 6-(10-hydroxydecyl)-2,3-dimethoxy-5-methyl-1,4-benzoquinone, reference compound], the mortality at 2 mg/kg [1] was 40%, the ED50 [1] was 4.5 mg/kg and the “antiischemic activity, in words” value [1] was “less active in the same dose”. The IC50 [2] was 1.2 µM and the IC50 [3] was 18.9 µM.
In the case of `CC[C@]12C=C(C(=O)OCCOC(C)=O)n3c4c(c5ccccc53)CCN(CCC1)[C@H]42` [Compound 1010886, (+)-trans apovincaminic acid 2-(acetoxy)ethyl ester(3α,16β)hydrochloride], the IC50 [2] is reported as 7.6 µM and < 10 µM, the “inhibition of NADPH-induced lipid peroxidation relative to silymarin (times as strongly)” value [2] is reported as “about 20 times” and the IC50 [3] is reported as 7.7 µM and < 10 µM. For the same compound, the “antioxidant activity” value [3] was “about twice as active as idebenone or DL-α-tocopherol”, the “Inhibition of the diazepam-induced amnesia %” value ([4]; 0.1 mg/kg p.o.) was 72% and the “Inhibition of the diazepam-induced amnesia %” value ([4]; 10.0 mg/kg p.o.) was 44%. For the same compound, the “antiamnesic activity, in words” value [4] was “particularly effective”.
For `CC[C@@]12C=C(C(=O)OCCOC(=O)c3ccccc3)n3c4c(c5ccccc53)CCN(CCC1)[C@@H]42` [Compound 1010960, (-)-trans apovincaminic acid 2-(benzoyloxy)ethyl ester(3β,16α)hydrochloride], the mortality at 2 mg/kg [1] was 10 to 30%, the IC50 [2] was 7.4 µM and < 10 µM and the “inhibition of NADPH-induced lipid peroxidation relative to silymarin (times as strongly)” value [2] was “about 20 times”. For the same compound, the IC50 [3] was 5.7 µM and < 10 µM, the “antioxidant activity” value [3] was “about twice as active as idebenone or DL-α-tocopherol” and the “Inhibition of the diazepam-induced amnesia %” value ([4]; 0.1 mg/kg p.o.) was 0%. For the same compound, the “Inhibition of the diazepam-induced amnesia %” value ([4]; 10.0 mg/kg p.o.) was 0%.
With `CC[C@@]12C=C(C(=O)OCCO)n3c4c(c5ccccc53)CCN(CCC1)[C@@H]42` [Compound 1010885, (-)-trans apovincaminic acid 2-hydroxyethyl ester(3β,16α)] the mortality at 2 mg/kg [1] was 60%, the IC50 [2] was 9.7 µM and the “inhibition of NADPH-induced lipid peroxidation relative to silymarin (times as strongly)” value [2] was “about 20 times”. The IC50 [3] was 15.5 µM, the “antioxidant activity” value [3] was “more strongly than idebenone” and the “Inhibition of the diazepam-induced amnesia %” value ([4]; 0.1 mg/kg p.o.) was 74%. For the same compound, the “Inhibition of the diazepam-induced amnesia %” value ([4]; 10.0 mg/kg p.o.) was 65%.
In the case of “(-)-Bis-trans apovincaminic acid ethyleneglycol ester(3β,16β)dihydrochloride [Compound 1011008]”, the IC50 [2] is reported as 6 µM, the “antioxidant effect” value [2] is reported as “comparable to that of idebenone” and the IC50 [3] is reported as 21.2 µM. The “antioxidant activity” value [3] was “exceeded that of silymarin”.
With `CCOC(=O)C1=C[C@]2(CC)CCCN3CCc4c(n1c1ccccc41)[C@@H]32` [Vinpocetine, reference compound] the “Inhibition of the diazepam-induced amnesia %” value ([4]; 0.1 mg/kg p.o.) was 0% and the “Inhibition of the diazepam-induced amnesia %” value ([4]; 10.0 mg/kg p.o.) was 123%.
In the case of `CC[C@]12C=C(C(=O)OCCOC(=O)c3ccc(Cl)cc3)n3c4c(c5ccccc53)CCN(CCC1)[C@H]42` [Compound 1011037, (+)-trans apovincaminic acid 2-(4-chloro-benzoyloxy)-ethyl ester(3α,16β)methanesulfonate], the mortality at 2 mg/kg [1] is reported as 50%, the IC50 [2] is reported as 3.2 µM and the “antioxidant effect” value [2] is reported as “comparable to that of idebenone”. The IC50 [3] was 11.4 µM.

From US6093720A, “Trans apovincaminic acid ester derivatives” (Richter Gedeon Vegyeszeti GmbH, priority 1995, dated 2000)
